“Also recorded” adds a separate entry of the source.
Legend:
adult mouse DRG neurons = experiment: Antisense experiment: neurite outgrowth and branching of adult mouse DRG cultures; format: cell-based
Experimental: DRG cultures and neurite outgrowth analysis. Embryonic day 7 (E7) chick, embryonic day 13 chick, or adult mouse DRGs were dissected and dissociated with 0.25% trypsin for 15 min at 37° C. For adult mouse DRG preparations, preincubation with 1 mg/ml collagenase was included. For preconditioned adult mouse DRG cultures, sciatic nerve lesions were performed 4 d before death and L3-L5 DRG dissection. Dissociated cells were preplated on tissue culture-treated plastic dishes for 1 hr at 37° C. Non-adherent cells (predominantly neurons) were collected and plated on plastic chamber slides coated with poly-L-lysine (100 μg)/laminin (10 μg/ml). In some cases, the substrate was coated with 45 ng/mm^2 bovine CNS myelin or 34 ng/mm^2 purified GST-Nogo-66 protein as described previously (Jin and Strittmatter, 1997; GrandPre et al., 2000; Fournier et al., 2001). After 6-36 hr, cells were fixed and stained, and neurite outgrowth was quantified. Images of each culture were captured with Olympix Software and analyzed with Scion Image (Jin and Strittmatter, 1997; GrandPre et al., 2000; Fournier et al., 2001). The total neurite length for each neuron was determined for 50-100 neurons in each experiment. The total number of branch points was divided by the total neurite length to obtain a branching index.
Antisense experiment. Phosphorothioate sense and antisense oligonucleotides spanning the translation initiation site (italic type) of the mouse sprr1a sequence (sense, p-thio-[…] (SEQ ID NO:4); antisense, p-thio-[…] (SEQ ID NO:5)) were generated. Adult mouse DRG cultures were incubated with purified oligonucleotides at concentrations of 10-50 μM. Immunoblot and immunohistological analysis was performed after 36 hr of culture.

SPRR1A = experiment: Immunoblot for SPRR1A protein in oligonucleotide-treated adult mouse DRG cultures; format: cell-based; conditions: preconditioned adult DRG neurons, 36 hr culture with oligonucleotide 10-50 μM
E8 chick DRGs = experiment: Neurite outgrowth of E8 chick DRGs triturated with SPRR1A-derived peptide; format: cell-based; conditions: trituration, 6 hours after plating on laminin
Excerpt: Herpes simplex virus preparation and protein trituration. The coding region of mouse SPRR1A was amplified by PCR with an in-frame C-terminal Myc epitope and ligated to the pHSVprPUC vector. Similarly, the S100C coding region with a Myc tag was ligated to pHSVprPUC vector. The resulting plasmids were transfected into 2-2 cells with Fugene and then superinfected with 5 dl 1.2 herpes simplex virus (HSV) helper virus 1 d later as described previously (Nakamura et al., 1998; Takahashi et al., 1998, 1999). Recombinant virus was amplified through three passages and stored at −80° C. Freshly dissociated DRG neurons were allowed to adhere to cultured dishes for 30 min and then incubated with HSV preparations encoding for SPRR1A, S100C, enhanced green fluorescent protein (EGFP), or Nogo receptor. […]
(§1) DRG cultures and neurite outgrowth analysis. […] After 6-36 hr, cells were fixed and stained, and neurite outgrowth was quantified. Images of each culture were captured with Olympix Software and analyzed with Scion Image (Jin and Strittmatter, 1997; GrandPre et al., 2000; Fournier et al., 2001). The total neurite length for each neuron was determined for 50-100 neurons in each experiment. […]
An SPRR1A-derived peptide acts as an agent to promote axon regeneration. […] This 24 amino acid peptide was triturated into E8 chick DRGs and neurite length was measured 6 hours after the cells were plated on laminin (FIG. 8). […]

chick E7 DRG neurons = experiment: Neurite outgrowth of embryonic chick DRG neurons after HSV infection or protein trituration; format: cell-based
Excerpt: Herpes simplex virus preparation and protein trituration. The coding region of mouse SPRR1A was amplified by PCR with an in-frame C-terminal Myc epitope and ligated to the pHSVprPUC vector. Similarly, the S100C coding region with a Myc tag was ligated to pHSVprPUC vector. The resulting plasmids were transfected into 2-2 cells with Fugene and then superinfected with 5 dl 1.2 herpes simplex virus (HSV) helper virus 1 d later as described previously (Nakamura et al., 1998; Takahashi et al., 1998, 1999). Recombinant virus was amplified through three passages and stored at −80° C. Freshly dissociated DRG neurons were allowed to adhere to cultured dishes for 30 min and then incubated with HSV preparations encoding for SPRR1A, S100C, enhanced green fluorescent protein (EGFP), or Nogo receptor. Recombinant SPRR1A and S100C protein were triturated into dissociated DRGs by repetitive pipetting in the presence of 1 mg/ml of protein as described previously (Jin and Strittmatter, 1997).
as §1

F-actin = experiment: Actin cosedimentation and immunoprecipitation assays; format: binding; conditions: in the presence or absence of S100C protein
Experimental: Actin cosedimentation assay. The actin cosedimentation protocol has been described previously (Gonzalez et al., 1998; Sakaguchi et al., 2000). Purified monomeric actin (G-actin, 25 μM; Cytoskeleton, Denver, Colo.) was incubated with recombinant SPRR1A (200 nM), GST-S100C (2 μM), or GST (2 μM) in an actin polymerization buffer (5 mM Tris, pH 8.0, 1.0 mM CaCl2, 1.0 mM DTT, 0.2 mM ATP, 100 mM KCl, 2.0 mM MgCl2) at room temperature for 60 min. Polymerized actin was sedimented by centrifugation at […] for 1 hr. Equal volumes of the particulate and supernatant fractions were analyzed by SDS-PAGE and immunoblotting.

What does the source list for “p-thio-GTGGGAACTCATGGTTAGAT (all phosphorothioate, sugars by position and methylation of C not given here) [antisense oligonucleotide]”?
neurite length, preconditioned neurons (adult mouse DRG neurons; adult preconditioned DRG neurons, 36 hr, vs sense-treated): significant decrease in neurite length; axonal branching index, preconditioned neurons (adult mouse DRG neurons; adult preconditioned DRG neurons, vs sense-treated): marked increase; effect on naive neurons (do not express SPRR1A) (adult mouse DRG neurons; naive adult mouse DRG neurons): lack of effect; SPRR1A protein level (immunoblot, immunohistochemistry) (SPRR1A): significantly and selectively decreased; also recorded: decreases to nearly basal levels

Which results are given for “acetyl-HPKAPEPCNPKVPEPCQPKVPEPC-amide (Ac-HPKAPEPCNPKVPEPCQPKVPEPC-NH2; cysteine pairing not given here; listed as Mus musculus) [SEQ ID NO:3, 24 amino acid peptide consisting of three XPKXPEPC octapeptide repeats of SPRR1A]”?
enhancement of average neurite outgrowth (E8 chick DRGs; 5-25 μM peptide): 1.7 fold; enhancement of neurite outgrowth (E8 chick DRGs; 100-500 μM peptide): 2.5 fold

B1: SPRR1A: Recombinant mouse small proline-rich repeat protein SPRR1A purified from transformed Escherichia coli (protein, listed as Mus musculus)
chain: MSSHQQKQPCTVPPQLHQQQVKQPCQPPPQEPCAPKTKDPCHPVPEPCNPKGPEPCHPKAPEPCHPKAPEPCNPKVPEPCQPKVPEPCQPKVPEPCNPKVPEPCQPKAPEPCHPKAPEPCHPVVPEPCPSTVTPSPYQQKTKQK
B1 was tested. Which “neurite outgrowth, protein added to the culture medium without trituration” value (chick E7 DRG neurons; no trituration) did it give?
Its value is “does not alter outgrowth”.

What about the “neurite outgrowth in neurons triturated with purified protein” value (chick E7 DRG neurons; recombinant protein triturated into DRG neurons, 1 mg/ml) of the same molecule?
Its value is “increase in neurite outgrowth”.

What about the “direct physical association with F-actin” value (F-actin) of the same molecule?
The value was “no direct physical association”.
